For 32 molecules, EC50 results are on record in patent publication US8987250B2 (Gilead Sciences, Inc., priority 2012, dated 2015).

By EC50 is commonly meant the concentration giving half of the maximal effect.

Like-named read-outs stand apart in the source and are kept apart here.

The subject of this assay is HIV-IIIb. In words: Test A: Antiviral Assay in MT4 Cells. The format is cell-based. As to conditions: Human immunodeficiency virus 1, IIIB, MT4, 120 h. Summed up: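 Read-out: CellTiter-Glo chemiluminescence after 5-day incubation at 37 °C. Compounds tested as 3-fold serial dilutions (10 concentrations, quadruplicate) in RPMI 1640 with 10% FBS, on MT-4 cells pre-infected at 37 °C with HIV-IIIb at 0.004 m.o.i.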

Where [1] appears, read: Table 2, MT-4 cells infected with HIV-IIIb, 5 days of incubation, CellTiter-Glo, read-out: EC50.
Where [2] appears, read: Table 1, MT-4 cells infected with HIV-IIIb, 5 days of incubation, CellTiter-Glo, read-out: EC50.

Take `Cc1cc2nc(-c3ccc4c(n3)c(N3CCN(C)CC3)nn4C)sc2c(-c2ccc(Cl)cc2)c1[C@H](OC(C)(C)C)C(=O)O` [Compound 495, (S)-2-tert-butoxy-2-(7-(4-chlorophenyl)-5-methyl-2-(1-methyl-3-(4-methylpiperazin-1-yl)-1H-pyrazolo[4,3-b]pyridin-5-yl)benzo[d]thiazol-6-yl)acetic acid]: the half-maximal effective concentration (EC50) under setting [1] is 4 nM.

For the molecule `Cc1cc2nc(-c3cc(-c4ccc5c(cnn5C)c4)ncc3C(F)F)sc2c(-c2ccc(Cl)cc2)c1[C@H](OC(C)(C)C)C(=O)O` [Compound 290, (S)-2-(tert-butoxy)-2-(7-(4-chlorophenyl)-2-(5-(difluoromethyl)-2-(1-methyl-1H-indazol-5-yl)pyridin-4-yl)-5-methylbenzo[d]thiazol-6-yl)acetic acid], under setting [1], the EC50 was found to be 87 nM.

Turning to `Cc1cc2nc(N3CCOC(c4ccc5c(cnn5C)c4)C3)sc2c(-c2ccc(Cl)cc2)c1[C@H](OC(C)(C)C)C(=O)O` (stereo partly drawn) [Compound 324, (2S)-2-tert-butoxy-2-(7-(4-chlorophenyl)-5-methyl-2-(2-(1-methyl-1H-indazol-5-yl)morpholino)benzo[d]thiazol-6-yl)acetic acid], the EC50 under setting [1] amounted to 13 nM. On the same count and under the same terms, next, `Cc1cc2nc(-c3ncc4c(n3)c(C)nn4C)sc2c(-c2ccc(Cl)cc2)c1[C@H](OC(C)(C)C)C(=O)O` [Compound 487, (S)-2-tert-butoxy-2-(7-(4-chlorophenyl)-2-(1,3-dimethyl-1H-pyrazolo[4,3-d]pyrimidin-5-yl)-5-methylbenzo[d]thiazol-6-yl)acetic acid]: 12 nM.

Regarding `Cc1cc2nc(-c3c4cnccc4nn3C)sc2c(-c2ccc(Cl)cc2)c1[C@H](OC(C)(C)C)C(=O)O` [Compound 362], the EC50 under setting [1] stood at 21 nM. For `CCC(C)(C)O[C@H](C(=O)O)c1c(C)cc2nc(N3CCC3)sc2c1-c1ccc2c3c(ccnc13)CCO2` (atropisomer, axis not shown) [Compound 89, (S)-2-((S)-2-(azetidin-1-yl)-7-(2,3-dihydropyrano[4,3,2-de]quinolin-7-yl)-5-methylbenzo[d]thiazol-6-yl)-2-(tert-pentyloxy)acetic acid], the concentration for a half-maximal effect (EC50) under setting [2] was determined as 36.6 nM.

In the case of `Cc1cc2nc(-c3ccnc(N4CCOCC4)c3)sc2c(-c2ccc(Cl)cc2)c1[C@H](OC(C)(C)C)C(=O)O` [Compound 218, (S)-2-tert-butoxy-2-(7-(4-chlorophenyl)-5-methyl-2-(2-morpholinopyridin-4-yl)benzo[d]thiazol-6-yl)acetic acid], under setting [1], the EC50 amounted to 116 nM. Consider `Cc1cc2nc(-c3cccc(-c4ccc5c(cnn5C)c4)c3)sc2c(-c2ccc3c(c2)C(=O)CCO3)c1[C@H](OC(C)(C)C)C(=O)O` [Compound 169], for which, under setting [2], the concentration for a half-maximal effect (EC50) was 33 nM. Consider `Cc1cc2nc(-c3ccc4c(c3)n(C)c(=O)n4C)sc2c(-c2ccc(Cl)cc2)c1[C@H](OC(C)(C)C)C(=O)O` [Compound 286, (S)-2-(tert-butoxy)-2-(7-(4-chlorophenyl)-2-(1,3-dimethyl-2-oxo-2,3-dihydro-1H-benzo[d]imidazol-5-yl)-5-methylbenzo[d]thiazol-6-yl)acetic acid], for which, under setting [1], the EC50 came out at 10 nM.

`Cc1cc2nc(-c3ccc4nn(C)cc4n3)sc2c(-c2ccc(Cl)cc2)c1[C@H](OC(C)(C)C)C(=O)O` [Compound 366]: the EC50 under setting [1] is 6 nM. `Cc1cc2nc(-c3cccc(-c4ccc5c(n4)N(C)CCO5)c3)sc2c(-c2ccc(Cl)cc2)c1[C@H](OC(C)(C)C)C(=O)O` [Compound 395]: the concentration giving a half-maximal response (EC50) under setting [1] was 61 nM. `Cc1cc2nc(-c3ccnc(-c4ccc5nc(N)ccc5c4)n3)sc2c(-c2ccc(Cl)cc2)c1[C@H](OC(C)(C)C)C(=O)O` [Compound 489, (S)-2-(2-(2-(2-aminoquinolin-6-yl)pyrimidin-4-yl)-7-(4-chlorophenyl)-5-methylbenzo[d]thiazol-6-yl)-2-tert-butoxyacetic acid]: under setting [1], the EC50 worked out at 20 nM.

In the case of `Cc1cc2nc(-c3ccnc(N4CCc5c(c(C)nn5C)C4)c3)sc2c(-c2ccc(Cl)cc2)c1[C@H](OC(C)(C)C)C(=O)O` [Compound 224, (S)-2-tert-butoxy-2-(7-(4-chlorophenyl)-2-(2-(1,3-dimethyl-6,7-dihydro-1H-pyrazolo[4,3-c]pyridin-5(4H)-yl)pyridin-4-yl)-5-methylbenzo[d]thiazol-6-yl)acetic acid], the EC50 under setting [1] came to 12 nM. As to `Cc1cc2nc(-c3ccnc(-c4cccc5c4OCC(=O)N5)c3)sc2c(-c2ccc(Cl)cc2)c1[C@H](OC(C)(C)C)C(=O)O` [Compound 392], under setting [1], the EC50 amounted to 27 nM. As to `Cc1cc2nc(-c3ccc4nc(C)n(C)c4c3)sc2c(-c2ccc(Cl)cc2)c1[C@H](OC(C)(C)C)C(=O)O` [Compound 292, (S)-2-(tert-butoxy)-2-(7-(4-chlorophenyl)-2-(1,2-dimethyl-1H-benzo[d]imidazol-6-yl)-5-methylbenzo[d]thiazol-6-yl)acetic acid], the EC50 under setting [1] was 23 nM. For the molecule `Cc1cc2nc(-c3ccnc(-c4cnc(N5CCN(C)CC5)nc4)c3)sc2c(-c2ccc(Cl)cc2)c1[C@H](OC(C)(C)C)C(=O)O` [Compound 136], the EC50 under setting [2] worked out at 12 nM.

Turning to `Cc1cc2nc(N3CCN(C)C(c4ccc5c(cnn5C)c4)C3=O)sc2c(-c2ccc(Cl)cc2)c1[C@H](OC(C)(C)C)C(=O)O` (stereo partly drawn) [Compound 274, (2S)-2-tert-butoxy-2-(7-(4-chlorophenyl)-5-methyl-2-(4-methyl-3-(1-methyl-1H-indazol-5-yl)-2-oxopiperazin-1-yl)benzo[d]thiazol-6-yl)acetic acid], under setting [1], the concentration giving a half-maximal response (EC50) was 31 nM. On the same count and under the same terms, the figure for `Cc1cc2nc(-c3ccc4c(n3)c(C)nn4C)sc2c(-c2ccc(Cl)cc2)c1[C@H](OC(C)(C)C)C(=O)O` [Compound 358] is 241 nM; for `CCn1ncc2cc(-c3nc4cc(C)c([C@H](OC(C)(C)C)C(=O)O)c(-c5ccc(Cl)cc5)c4s3)ccc21` [Compound 351] it is 21 nM. In the case of `Cc1cc2nc(-c3ccc4c(c3)c(-c3ccncc3)nn4C)sc2c(-c2ccc(Cl)cc2)c1[C@H](OC(C)(C)C)C(=O)O` [Compound 213, (S)-2-tert-butoxy-2-(7-(4-chlorophenyl)-5-methyl-2-(1-methyl-3-(pyridin-4-yl)-1H-indazol-5-yl)benzo[d]thiazol-6-yl)acetic acid], under setting [1], the 50% effective concentration (EC50) is 4 nM. With `COc1ncc(-c2ccc(-c3nc4cc(C)c([C@H](OC(C)(C)C)C(=O)O)c(-c5ccc(Cl)cc5)c4s3)cc2)cn1` [Compound 355], the concentration for a half-maximal effect (EC50) under setting [1] was found to be 182 nM. Take `Cc1cc2nc(-c3ccnc(N4CCN(C(C)C(F)(F)F)CC4)n3)sc2c(-c2ccc(Cl)cc2)c1[C@H](OC(C)(C)C)C(=O)O` (stereo partly drawn) [Compound 474, (2S)-2-tert-butoxy-2-(7-(4-chlorophenyl)-5-methyl-2-(2-(4-((2R/2S)-1,1,1-trifluoropropan-2-yl)piperazin-1-yl)pyrimidin-4-yl)benzo[d]thiazol-6-yl)acetic acid]: the EC50 under setting [1] was determined as 40 nM. Regarding `Cc1cc2nc(N3CCn4c(C)nnc4C3)sc2c(-c2ccc(Cl)cc2)c1[C@H](OC(C)(C)C)C(=O)O` [Compound 442], the half-maximal effective concentration (EC50) under setting [1] worked out at 1160 nM. Take `Cc1cc2nc(-c3ccnc(-c4ccc5c(c4)OCC(=O)N5)c3)sc2c(-c2ccc(Cl)cc2)c1[C@H](OC(C)(C)C)C(=O)O` [Compound 391]: the concentration giving a half-maximal response (EC50) under setting [1] turned out to be 11 nM. For `Cc1cc2nc(-c3ccnc(-c4cnc5cnn(C)c5c4)c3)sc2c(-c2ccc(Cl)cc2)c1[C@H](OC(C)(C)C)C(=O)O` [Compound 129], under setting [2], the EC50 is 48 nM. Turning to `Cc1cc2nc(-c3ccnc(-c4ccc5c(F)nn(C)c5c4)c3)sc2c(-c2ccc(Cl)cc2)c1[C@H](OC(C)(C)C)C(=O)O` [Compound 225, (S)-2-tert-butoxy-2-(7-(4-chlorophenyl)-2-(2-(3-fluoro-1-methyl-1H-indazol-6-yl)pyridin-4-yl)-5-methylbenzo[d]thiazol-6-yl)acetic acid], the EC50 under setting [1] came to 96 nM. Regarding `Cc1cc2nc(-c3ccnc(N4CCCN(C)CC4)n3)sc2c(-c2ccc(Cl)cc2)c1[C@H](OC(C)(C)C)C(=O)O` [Compound 477, (S)-2-tert-butoxy-2-(7-(4-chlorophenyl)-5-methyl-2-(2-(4-methyl-1,4-diazepan-1-yl)pyrimidin-4-yl)benzo[d]thiazol-6-yl)acetic acid], the 50% effective concentration (EC50) under setting [1] was 14 nM. `Cc1cc2nc(-c3cccc(N4CCN(C(C)C)CC4)n3)sc2c(-c2ccc(Cl)cc2)c1[C@H](OC(C)(C)C)C(=O)O` [Compound 307, (S)-2-tert-butoxy-2-(7-(4-chlorophenyl)-2-(6-(4-isopropylpiperazin-1-yl)pyridin-2-yl)-5-methylbenzo[d]thiazol-6-yl)acetic acid] came in with a 50% effective concentration (EC50) of 4 nM. `Cc1cc2nc(-c3ccnc(-c4ccc5c(c4)N(C)CCO5)c3)sc2c(-c2ccc(Cl)cc2)c1[C@H](OC(C)(C)C)C(=O)O` [Compound 404]: the EC50 under setting [1] is 41 nM. Same read-out and setting: next, `CCn1ncc2cc(-c3cc(-c4nc5cc(C)c([C@H](OC(C)(C)C)C(=O)O)c(-c6ccc(Cl)cc6)c5s4)ccn3)ccc21` [Compound 174, (S)-2-tert-butoxy-2-(7-(4-chlorophenyl)-2-(2-(1-ethyl-1H-indazol-5-yl)pyridin-4-yl)-5-methylbenzo[d]thiazol-6-yl)acetic acid]: 26 nM; `Cc1cc2nc(-c3ccnc(-c4ccc5ccc(=O)[nH]c5c4)c3)sc2c(-c2ccc(Cl)cc2)c1[C@H](OC(C)(C)C)C(=O)O` [Compound 453]: 36 nM; `Cc1cc2nc(-c3ccnc(-n4ccc5cccnc5c4=O)c3)sc2c(-c2ccc(Cl)cc2)c1[C@H](OC(C)(C)C)C(=O)O` [Compound 187, (S)-2-tert-butoxy-2-(7-(4-chlorophenyl)-5-methyl-2-(2-(8-oxo-1,7-naphthyridin-7(8H)-yl)pyridin-4-yl)benzo[d]thiazol-6-yl)acetic acid]: 25 nM.
